Results from patent EP1757607A1, “N5-substituted benzo¬2,3|azepino¬4,5-b|indol-6-ones for treating tropical diseases” (Molisa GmbH, priority 2005, dated 2007).

Assays:
[1] = target: T1, Trypanothione Synthetase TS (Crithidia fasciculata, UniProt O60993); test: Inhibition of Trypanothione Synthetase (Table 1); assay type: biochemical; details: compound concentration not stated for Table 1
T1 sequence (O60993 1-652): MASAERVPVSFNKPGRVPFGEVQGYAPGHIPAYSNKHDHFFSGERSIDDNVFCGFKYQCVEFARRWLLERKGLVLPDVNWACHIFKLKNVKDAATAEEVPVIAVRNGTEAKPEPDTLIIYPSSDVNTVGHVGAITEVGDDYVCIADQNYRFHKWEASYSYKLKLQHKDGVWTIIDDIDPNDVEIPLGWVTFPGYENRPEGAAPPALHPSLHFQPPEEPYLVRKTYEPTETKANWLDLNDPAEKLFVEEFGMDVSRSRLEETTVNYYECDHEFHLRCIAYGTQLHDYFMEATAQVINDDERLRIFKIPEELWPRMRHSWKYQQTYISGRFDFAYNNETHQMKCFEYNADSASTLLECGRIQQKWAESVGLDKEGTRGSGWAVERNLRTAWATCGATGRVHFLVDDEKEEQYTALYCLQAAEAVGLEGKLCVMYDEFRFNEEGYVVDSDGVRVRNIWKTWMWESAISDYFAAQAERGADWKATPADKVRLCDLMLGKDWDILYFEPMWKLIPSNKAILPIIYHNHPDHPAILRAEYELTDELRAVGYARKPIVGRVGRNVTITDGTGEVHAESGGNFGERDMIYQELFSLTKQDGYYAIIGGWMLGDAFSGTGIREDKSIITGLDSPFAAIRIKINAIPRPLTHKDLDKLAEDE

TryS = target: T2, TryS (Crithidia fasciculata, UniProt O60993); test: Screening of potential inhibitors against TryS (malachite green, A650); assay type: biochemical; details: 10 µM compound; 90.75 nM TryS, 0.675 mM GSH, 6.75 mM spermidine, 45 µM ATP, room temperature, 60 min; triplicates; read-out: inhibitory effect (%)
T2 sequence (O60993 1-652): T1 sequence (O60993 1-652)
Experimental: The compounds were screened against TryS at 10 µM compound concentration. The inhibitory effect of each compound on TryS was measured in triplicates. Obvious outliers from the triplicates were removed. If the standard deviation of the two remaining inhibition values exceeded 25 % the measurement was repeated.
The screen was performed under the following conditions: 90.75 nM TryS was incubated with 0.675 mM GSH, 6.75 mM spermidine, 45 µM ATP, and 10 µM compound in a total volume of 80 µl 100 mM HEPES pH 7.5, 10 mM MgSO4, 0.1 mM EDTA, 5 mM DTT at room temperature for 60 min. Reaction was stopped by addition of 10 µl malachitgreen reagent. A650 was measured after 20 min. No compound was present in the positive controls (C+). Neither GSH nor spermidine was present in the negative controls (C-).

| Molecule | Inhibition of TS % [1] [%] | inhibition at 10 µM (TryS) [%] |
| --- | --- | --- |
| 2-(9-Bromo-6-oxo-6,7-dihydro-5H-benzo[2,3]azepino[4,5-b]indol-5-yl)-acetic acid hydrazide [Compound 26] | 0 |  |
| CNCCNC(=O)CN1C(=O)Cc2c([nH]c3ccc(Br)cc23)-c2ccccc21 [Compound 13, 2-(9-Bromo-6-oxo-6,7-dihydro-5H-benzo[2,3]azepino[4,5-b]indol-5-yl)-N-(2-methylamino-1-yl-ethyl)-acetamide] | 92.4 |  |
| NCCNC(=O)CN1C(=O)Cc2c([nH]c3ccc(Br)cc23)-c2ccccc21 [Compound 17, N-(2-Amino-1-yl-ethyl)-2-(9-bromo-6-oxo-6,7-dihydro-5H-benzo[2,3]azepino[4,5-b]indol-5-yl)-acetamide] | 78.6 | 96.8 |
| NCCCNC(=O)CN1C(=O)Cc2c([nH]c3ccc(Br)cc23)-c2ccccc21 [Compound 18, N-(3-Amino-1-yl-propyl)-2-(9-bromo-6-oxo-6,7-dihydro-5H-benzo[2,3]azepino[4,5-b]indol-5-yl)-acetamide] | 37.8 | 85.1 |
| NCCCCNC(=O)CN1C(=O)Cc2c([nH]c3ccc(Br)cc23)-c2ccccc21 [Compound 19, N-(4-Amino-1-yl-butyl)-2-(9-bromo-6-oxo-6,7-dihydro-5H-benzo[2,3]azepino[4,5-b]indol-5-yl)-acetamide] | 16.2 | 54.3 |
| NCCCNCCCCNC(=O)CN1C(=O)Cc2c([nH]c3ccc(Br)cc23)-c2ccccc21 [Compound 20, N-(4-(3-Amino-1-yl-propylamino)-1-yl-butyl)-2-(9-bromo-6-oxo-6,7-dihydro-5H-benzo[2,3]azepino[4,5-b]indol-5-yl)-acetamide] | 24.6 | 47.6 |

More lines, now with the values ahead:

| Inhibition of TS % [1] [%] | inhibition at 10 µM (TryS) [%] | Molecule |
| --- | --- | --- |
| 22.5 | 47.6 | NCCCCNCCCNC(=O)CN1C(=O)Cc2c([nH]c3ccc(Br)cc23)-c2ccccc21 [Compound 21, N-(3-(4-Amino-1-yl-butylamino)-1-yl-propyl)-2-(9-bromo-6-oxo-6,7-dihydro-5H-benzo[2,3]azepino[4,5-b]indol-5-yl)-acetamide] |
| 51.7 |  | CNCCNC(=O)CN1C(=O)Cc2c([nH]c3ccc(C#N)cc23)-c2ccccc21 [Compound 22, 2-(9-Cyano-6-oxo-6,7-dihydro-5H-benzo[2,3]azepino[4,5-b]indol-5-yl)-N-(2-methylamino-1-yl-ethyl)-acetamide] |
| 0 |  | CNCCNC(=O)CN1C(=O)Cc2c([nH]c3ccccc23)-c2ccccc21 [Compound 23, N-(2-Methylamino-1-yl-ethyl)-2-(6-oxo-6,7-dihydro-5H-benzo[2,3]azepino[4,5-b]indol-5-yl)-acetamide] |
| 20.5 |  | CNCCNC(=O)CN1C(=O)Cc2c([nH]c3ccc(C)cc23)-c2ccccc21 [Compound 24, 2-(9-Methyl-6-oxo-6,7-dihydro-5H-benzo[2,3]azepino[4,5-b]indol-5-yl)-N-(2-methylamino-1-yl-ethyl)-acetamide] |
| 76.5 |  | O=C(CN1C(=O)Cc2c([nH]c3ccc(Br)cc23)-c2ccccc21)N1CCNCC1 [Compound 25, N-[2-(9-Bromo-6-oxo-6,7-dihydro-5H-benzo[2,3]azepino[4,5-b]indol-5-yl)-acetyl]-piperazine] |
